Experimental data from the Kinase Knowledgebase extract (Sharma et al. 2016).

The compounds below were run against MAPK14 (human) (UniProt Q16539) (assay: Assessment of MAPK14 Kinase Activity).
Sequence of MAPK14 (human) (Q16539 whole entry, looked up): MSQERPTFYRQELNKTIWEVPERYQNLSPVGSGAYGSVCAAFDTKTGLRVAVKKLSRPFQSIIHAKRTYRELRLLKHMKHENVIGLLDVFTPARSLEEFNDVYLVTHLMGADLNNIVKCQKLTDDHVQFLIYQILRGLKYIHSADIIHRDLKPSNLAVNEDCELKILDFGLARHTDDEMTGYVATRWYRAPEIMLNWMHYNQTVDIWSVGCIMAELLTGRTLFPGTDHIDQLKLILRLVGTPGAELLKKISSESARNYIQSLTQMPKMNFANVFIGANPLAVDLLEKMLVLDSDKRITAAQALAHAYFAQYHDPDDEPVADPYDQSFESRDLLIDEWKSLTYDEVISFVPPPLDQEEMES

IC50, < 100 nM:
COc1ccc(-c2cc(NC(=O)Nc3sc(C(C)(C)C)cc3C(=O)N3CCN(C)C(=O)C3(C)C)cc(F)c2C)cn1
COc1ccc(-c2cc(NC(=O)Nc3sc(C(C)(C)C)cc3C(=O)N3CCNC(=O)C3(C)C)ccc2C)nc1
COCCNC(=O)c1ccc(-c2cc(NC(=O)Nc3sc(C(C)(C)C)cc3C(=O)N3CCN(C)C(=O)C3(C)C)ccc2C)cn1
CCc1ccc(-c2cc(NC(=O)Nc3cc(C(C)(C)C)sc3C(=O)N3CCN(C)C(=O)C3(C)C)cc(F)c2C)cn1
Cc1ccc(NC(=O)Nc2sc(C(C)(C)C)cc2C(=O)N2CCNC(=O)C2(C)C)cc1-c1ccc(NCC(C)C)nc1
CCc1ccc(-c2cc(NC(=O)Nc3sc(C(C)(C)C)cc3C(=O)N3CCNC(=O)C3(C)C)ccc2C)nc1
Cc1ccc(NC(=O)Nc2cn(C(C)(C)C)nc2C(=O)N2CCNC(=O)C2(C)C)cc1-c1cccnc1
CNC(=O)c1ccc(-c2cc(NC(=O)Nc3sc(C(C)(C)C)cc3C(=O)N3CCNC(=O)C3(C)C)ccc2C)cn1
Cc1ccc(NC(=O)Nc2sc(C(C)(C)C)cc2C(=O)N2CCNC(=O)C2(C)C)cc1-c1ccc(OCCN(C)C)nc1
CN1CCN(CCCOc2ccc(-c3cccc(NC(=O)Nc4sc(C(C)(C)C)cc4C(=O)N4CCNC(=O)C4(C)C)c3)cn2)CC1
Cc1ccc(NC(=O)Nc2sc(C(C)(C)C)cc2C(=O)N2CCN(C)C(=O)C2(C)C)cc1-c1ccc(NS(C)(=O)=O)nc1
Cc1ccc(NC(=O)Nc2sc(C(C)(C)C)cc2C(=O)N2CCNC(=O)C2(C)C)cc1-c1ccc(N2CCC(N)C2)nc1 (stereo unspecified)
Cc1nnc(-c2ccc(-c3cc(NC(=O)Nc4sc(C(C)(C)C)cc4C(=O)N4CCN(C)C(=O)C4(C)C)ccc3C)cn2)o1
Cc1ccc(NC(=O)Nc2sc(C(C)(C)C)cc2C(=O)N2CCNC(=O)C2(C)C)cc1-c1ccncc1
COc1ccc(-c2cc(NC(=O)Nc3sc(C(C)(C)C)cc3C(=O)N3CCN(C)C(=O)C3(C)C)ccc2C)cn1
Cc1ccc(NC(=O)Nc2sc(C(C)(C)C)cc2C(=O)N2CCN(C)C(=O)C2(C)C)cc1-c1ccc(C(C)N2CCOCC2)nc1 (stereo unspecified)
